Reference: PMC12909347, “Disconnect between in vitro and in vivo efficacy of the MPS1 inhibitor NTRC 0066-0 against glioblastoma” (Cellular Oncology, 2026)

Key:
GBM cells = test: Incucyte caspase-3/7 apoptosis assay; format: cell-based, human; details: three serum-cultured GBM cell lines, increasing concentrations
Procedure: For the apoptosis assay, cells were plated in a 96-wells plate at low cell densities (500–1000 cells/well) and allowed to adhere overnight under standard culture conditions (37 °C, 5% CO₂). After 24 h, cells were exposed to different concentrations of NTRC0066-0. Apoptosis was measured using the Incucyte® Caspase-3/7 Dye for Apoptosis (Sartorius AG, Göttingen, Germany), which was added at a final concentration of 2.5 µM. As a positive control for the induction of Caspase 3/7-mediated apoptosis, cells were treated with a combination of S63845 and navitoclax (final concentrations 3 µM and 1.5 µM, respectively). Apoptotic cell death was assessed in real time with the Incucyte® S3 system (Sartorius AG). The Incucyte® was configured to capture phase-contrast images using a 10x objective lens. Data were collected and analyzed using the Incucyte® S3 software. Fluorescence signal confluence was quantified and normalized to the total phase-contrast confluence in each well to take variations in cell density into account. Curves were plotted using GraphPad Prism v10.3 (GraphPad Software).

[1] = Pharmacokinetics and brain penetration in wild-type FVB mice; format: in vivo
Procedure: The pharmacokinetics of NTRC 0066-0 were analyzed in wild-type (WT), Abcb1a/b^−/−, Abcg2^−/−, Abcb1a/b^−/−;Abcg2^−/− and Abcb1a/b^−/−;Abcg2^−/−;Abcc4^−/− FVB mice. All knockout mice strains have been developed at the Netherlands Cancer Institute. For i.v. administration, NTRC0066-0 was formulated in DMSO: Cremophor EL: saline (1:1:8 v/v) and injected at a dose of 5 mg/kg. For i.p and oral administration, NTRC0066-0 was administered at 5, 10 or 20 mg/kg as indicated. Serial blood sampling was done by tail vein bleeding at specific time points. At terminal time points, blood was drawn by cardiac puncture followed by tissue collection. Plasma was obtained from whole blood by centrifugation (5 min, 5,000 rpm, 4 °C) and tissues were weighed and homogenized using a FastPrep®-24 (MP-Biomedicals, NY) in 1% (w/v) bovine serum albumin (Sigma-Aldrich) in water.
NTRC 0066-0 was extracted from in vitro and in vivo samples using liquid–liquid extraction with diethyl ether. Another MPS-1 inhibitor, Compound 5 (Cpd-5), was added to the samples as an internal standard. The dried organic phase was reconstituted in 30% methanol in water (v/v). Samples were measured using an LC-MS/MS system comprising an UltiMate 3000 LC Systems (Dionex, Sunnyvale, CA) and an API 4000 mass spectrometer (Sciex, Framingham, MA). Samples were injected on to a Securityguard C18 pre-column (Phenomenex, Utrecht, The Netherlands) connected to a ZORBAX Extend-C18 column (Agilent, Santa Clara, CA). Elution was done at a flow rate of 0.2 mL/min using a 5 min gradient from 20% to 95% B (mobile phase A was 0.1% HCOOH in water (v/v) and mobile phase B was methanol). 95% B was maintained for 3 min followed by re-equilibration at 20% B. Multiple reaction monitoring parameters were 566.2/391.4 (NTRC0066-0) and 581.6/397.0 (internal standard). Analyst® 1.6.2 software (Sciex) was used for system control and data analysis.
PK solver was used to determine pharmacokinetic parameters. The standard error of the oral bioavailability was calculated using the formula below: […]

MELpT-KNL1 = MELpT-KNL1 foci in E98 tumors (target inhibition); format: in vivo, mice; details: last day of 5/10 mg/kg b.i.d.x7d schedule
Procedure: Mouse heads were fixed in 4% (v/v) formaldehyde and 5% (v/v) glacial acetic acid overnight, and subsequently decalcified in 6.5% (v/v) formic acid at 37 °C for 4 days. Decalcified tissues were paraffin embedded and cut into 4 μm coronal sections that were stained with hematoxylin and eosin (H&E), and for human Vimentin (1:4,000; M0725; DakoCytomation; Glostrup, Denmark), P-gp (1:200; 13978; Cell Signaling Technology; Danvers, MA), BCRP (1:400; ab24115; Abcam; Cambridge, UK), mouse IgG (K4001, Dako) and MELpT-KNL1 (1:50; as described previously). Sections were imaged and processed using an Aperio AT2 system and ImageScope software (v12; both Leica). MELpT-KNL1 foci were imaged using an Axio Observer Z1 system (Carl Zeiss AG; Oberkochen, Germany).

For `CCc1cccc(CC)c1NC(=O)c1ccn2c1CCc1cnc(Nc3ccc(N4CCN(C)CC4)cc3OC)nc1-2` [NTRC 0066-0], the “Induction of apoptosis (caspase 3/7 activation)” value (GBM cells) was “did not induce apoptosis”, the “Oral bioavailability (relative to i.p.)” value ([1]; WT mice) was “about 50%” and the Brain-plasma ratio ([1]; WT mice, 1 h after 5 mg/kg i.v.) was “approximately 4”. The Brain-to-plasma ratio ([1]; WT mice, 24 h after 10 mg/kg p.o. or i.p.) was “approximately 20”, the Cmax ([1]; WT, i.p. 10 mg/kg) was 780 ± 130 nM and the MRT ([1]; WT, i.p. 10 mg/kg) was 3.2 ± 0.4 h. The t1/2 ([1]; WT, i.p. 10 mg/kg) was 2.5 ± 0.2 h, the tmax ([1]; WT, i.p. 10 mg/kg) was 0.5 ± 0.3 h and the “Plasma AUCi.p.” value ([1]; WT, i.p. 10 mg/kg, 0-∞) was 2.8 ± 0.45 µM·h. It also gave a Cmax ([1]; WT, p.o. 10 mg/kg) of 180 ± 6.7 nM, an MRT ([1]; WT, p.o. 10 mg/kg) of 4.7 ± 0.2 h and a t1/2 ([1]; WT, p.o. 10 mg/kg) of 2.8 ± 0.2 h. For the same compound, the tmax ([1]; WT, p.o. 10 mg/kg) was 1.8 ± 1.5 h, the “F (bioavailability)” value ([1]; WT, p.o. 10 mg/kg relative to i.p.) was 59 ± 11% and the “Plasma AUCp.o.” value ([1]; WT, p.o. 10 mg/kg, 0-∞) was 1.7 ± 0.15 µM·h. The “Duration of reduction in MELpT-KNL1 foci in pro-/metaphase cells” value (MELpT-KNL1) was “at least 24 h”.
